Test results from patent WO2016071431A1, “A combination for cancer therapy” (Stichting Katholieke Universiteit, priority 2014, dated 2016).
“Also recorded” adds a separate entry of the source. Read-outs that look alike come from different tables or passages of the source. In the oligonucleotide strings, read from the 5' end, every base follows the letter of its sugar. An asterisk marks phosphorothioate; unmarked linkages are phosphodiester. Other units and linkages are bracketed, terminal groups are in braces. A string of capitals states the bases alone. [s2] = phosphorodithioate linkage; d = 2'-deoxy (DNA)

Legend:
mouse melanoma cells = settings: cited from earlier work
tumor cells = settings: Büll et al, 2013; cited from earlier work
[1] = tested on: Mouse bone marrow-derived dendritic cells; experiment: TLR-mediated maturation of mouse bone marrow-derived dendritic cells (CD80); format: cell-based; settings: three days with P-3Fax-Neu5Ac, then 24 hours LPS, CpG or polyI/C
melanoma cells = settings: Büll et al, 2013; cited from earlier work
mammalian cells = settings: Rillahan et al, 2012, cited from earlier work
9464D neuroblastoma = experiment: Intratumoral treatment of subcutaneous 9464D neuroblastoma, tumor growth; format: in vivo, mouse; settings: 10mg/kg or 20m/kg intratumoral three times per week until day 50, C57BL/6 mice
B16-F10 melanoma [2] = experiment: Combination with CpG in B16-F10 melanoma, tumor growth and survival; format: in vivo, mouse; settings: CpG combination study; P-3Fax-Neu5Ac 0.3mg intratumoral three times per week and/or CpG 100μg peritumoral day 14 and 21
CD8+ cells = experiment: Tumor infiltration of immune cells after intratumoral injections (flow cytometry); format: in vivo, mouse; settings: after 3 intratumoral injections, 0.3mg
[3] = tested on: Human monocyte-derived dendritic cells; experiment: TLR-mediated maturation of human monocyte-derived dendritic cells (CD80); format: cell-based; settings: six donors, four days with P-3Fax-Neu5Ac, then 24 hours polyI/C, R848 or LPS
B16-F10 melanoma [4] = experiment: Intratumoral treatment of subcutaneous B16-F10 melanoma, tumor growth; format: in vivo, mouse; settings: stand-alone, 0.3mg (10mg/kg) or 1mg (30mg/kg) intratumoral, three times per week for four weeks, C57BL/6 mice
B16-F10 melanoma [5] = experiment: Effect on B16-F10 tumor growth after depletion of effector immune cells; format: in vivo, mouse
sialic acid expression = experiment: Sialic acid expression in tumor tissue and other organs after intratumoral injections (lectin flow cytometry); format: in vivo, mouse; settings: after 3 intratumoral injections

COC(=O)C1(OC(C)=O)OC(C(OC(C)=O)C(COC(C)=O)OC(C)=O)C(NC(C)=O)C(OC(C)=O)C1F (stereo not shown) [P-3Fax-Neu5Ac]
expression of sialic acids in melanoma / cancer cells (mouse melanoma cells; Büll et al, 2013, listed as glycomimetic): potently blocks sialic acid synthesis and expression in cancer cells
duration of the blocking effect (mouse melanoma cells; Büll et al, 2013): almost four days
expression of sialic acids in melanoma / cancer cells (mouse melanoma cells; Büll et al, 2013): blocks the expression of sialic acids in mouse melanoma cells with high efficiency
adhesion and migration of tumor cells (tumor cells): can impair adhesion and migration of tumor cells
activation / maturation of dendritic cells (CD80 expression) [1]: enhances APC maturation with TLR ligands; also recorded: strongly enhances activation of dendritic cells
growth of melanoma cells treated with the inhibitor before injection into mice (melanoma cells): grow significantly slower
depletion of sialic acids from mammalian cells (mammalian cells): deplete sialic acids from mammalian cells
cellular cytotoxicity (mammalian cells; mammalian cells): without causing cellular cytotoxicity
tumor growth (9464D neuroblastoma): hamper 9464D neuroblastoma growth
median survival time / survival time (B16-F10 melanoma [2]): slightly prolonged the survival time
infiltration of immune cells in the tumor (CD8+ cells): enhanced infiltration of immune cells, especially CD8+ cells in the tumor
activation / maturation of dendritic cells (CD80 expression) [3]: enhances APC maturation with TLR ligands; also recorded: strongly enhances activation of dendritic cells
tumor growth (B16-F10 melanoma [4]): hamper B 16-F 10 melanoma growth; also recorded: antagonizes tumor growth in a dose-dependent manner
tumor growth (B16-F10 melanoma [4]; listed as glycomimetic): delayed tumor growth modestly
tumor growth suppression mediated by CD8+ cells (B16-F10 melanoma [5]; B16-F10 melanoma model, CD8+ depleted versus non-depleted mice): mediated by effector CD8+ immune cells
effect of sialic acid blockade on tumor growth upon CD4+ cell depletion (B16-F10 melanoma [5]; CD4+ cell depletion, 0.3mg intratumoral three times per week): unaffected
effect of sialic acid blockade on tumor growth upon CD8+ cell depletion (B16-F10 melanoma [5]; CD8+ cell depletion, 0.3mg intratumoral three times per week): CD8+ cell depletion abrogated the effect of sialic acid blockade on tumor growth
effect of sialic acid blockade on tumor growth upon K1.1+ cell depletion (B16-F10 melanoma [5]; K1.1+ cell depletion, 0.3mg intratumoral three times per week): unaffected
sialic acid expression in tumor tissue (sialic acid expression; 0.3mg or 1mg, MALII, SNA-I or PNA lectin): block sialic acid expression in the tumor mass; also recorded: reduction of sialic acid expression in the isolated tumor tissue
sialic acid expression in other organs such as the spleen (sialic acid expression; fluorescent sialic acid binding lectins): not other organs such as the spleen

CpG: CpG oligodeoxynucleotide immune adjuvant; more preferred: phosphodithioate backbone and sequence 5'-TCCATGACGTTCCTGATGCT-3' (DNA dT[s2]dC[s2]dC[s2]dA[s2]dT[s2]dG[s2]dA[s2]dC[s2]dG[s2]dT[s2]dT[s2]dC[s2]dC[s2]dT[s2]dG[s2]dA[s2]dT[s2]dG[s2]dC[s2]dT)
median survival time / survival time (B16-F10 melanoma [2]): no effect on tumor growth and median survival time
tumor growth (B16-F10 melanoma [2]): almost no effect on tumor growth
